The text below walks through data of US20080167363A1, “Modulation of Neurogenesis By Melatoninergic Agents” (BrainCells, Inc, priority 2006, published 2008).

The structures appear in SMILES notation. pEC50, pIC50: −log10 of the molar value. Where “and” joins values, the source holds several entries; their conditions need not be identical. Equal values may be shown once. Some results are limits rather than exact numbers.

The subject of assay [1] is Group I or Group III receptors. The conditions noted are these: at sub-mM concentrations; cited from earlier work.
A further assay has as its target mGluR3 (Homo sapiens, UniProt Q14832). The conditions noted are these: antagonist; cited from earlier work.
The target of a further assay is mGluR2 (Homo sapiens, UniProt Q14416). The conditions noted are these: antagonist; cited from earlier work.
The test system of assay [2] is Human neural stem cells (hNSCs). The experiment in a line: Neuronal differentiation of human neural stem cells (TUJ-1 staining). The class given is cell-based. The conditions noted are these: for maximum neuronal differentiation percent of positive control: basal media values subtracted. An excerpt: Human neural stem cells (hNSCs) were isolated and grown in monolayer culture, plated, treated with varying concentrations of the melatonin agonist ramelteon and stained with TUJ-1 antibody, as described in U.S. Provisional Application No. 60/697,905 (incorporated by reference). Mitogen-free test media with a positive control for neuronal differentiation was used along with basal media without growth factors as a negative control. […] Provisional Application No. 60/697,905 (incorporated by reference). Mitogen-free test media with a positive control for neuronal differentiation was used along with basal media without growth factors as a negative control. Human neural stem cells (hNSCs) were isolated and grown in monolayer culture, plated, treated with varying concentrations of captopril and/or melatonin (test compounds), and stained with TUJ-1 antibody, as described in U.S. Provisional Application No. 60/697,905 (incorporated by reference). Mitogen-free test media with a positive control for neuronal differentiation was used along with basal media without growth factors as a negative control. Human neural stem cells (hNSCs) were isolated and grown in monolayer culture, plated, treated with varying concentrations of serotonin (5-HT) and/or melatonin (test compounds), and stained with TUJ-1 antibody, as described in U.S. Provisional Application No. 60/697,905 (incorporated by reference). Mitogen-free test media with a positive control for neuronal differentiation was used along with basal media without growth factors as a negative control. Human neural stem cells (hNSCs) were isolated and grown in monolayer culture, plated, treated with varying concentrations of buspirone in the presence or absence of the melatonin agonist melatonin, and stained with TUJ-1 antibody, as described in U.S. Provisional Application No. 60/697,905 (incorporated by reference). Mitogen-free test media with a positive control for neuronal differentiation was used along with basal media without growth factors as a negative control. Human neural stem cells (hNSCs) were isolated and grown in monolayer culture, plated, treated with varying concentrations of buspirone in the presence or absence of the melatonin agonist ramelteon, and stained with TUJ-1 antibody, as described in U.S. Provisional Application No. 60/697,905 (incorporated by reference). Mitogen-free test media with a positive control for neuronal differentiation was used along with basal media without growth factors as a negative control. Human neural stem cells (hNSCs) were isolated and grown in monolayer culture, plated, treated with varying concentrations of the melatonin […] and stained with TUJ-1 antibody, as described in U.S. Provisional Application No. 60/697,905 (incorporated by reference). Mitogen-free test media with a positive control for neuronal differentiation was used along with basal media without growth factors as a negative control. Human neural stem cells (hNSCs) were isolated and grown in monolayer culture, plated, treated with varying concentrations of the melatonin […] and stained with TUJ-1 antibody, as described in U.S. Provisional Application No. 60/697,905 (incorporated by reference). Mitogen-free test media with a positive control for neuronal differentiation was used along with basal media without growth factors as a negative control. Human neural stem cells (hNSCs) were isolated and grown in monolayer culture, plated, treated with varying concentrations of the melatonin agonist agomelatine and stained with TUJ-1 antibody, as described in U.S. Provisional Application No. 60/697,905 (incorporated by reference). Mitogen-free test media with a positive control for neuronal differentiation was used along with basal media without growth factors as a negative control. The presence of synergy was determined by use of a combination index (CI). […]

Assay [3] deals with KA, AMPA, and NMDA iGlu receptors. The note with it: cited from earlier work.
Another assay has as its target human mGlu3 receptors (Homo sapiens, UniProt Q14832). The note with it: agonist, in vitro; cited from earlier work.
The next assay has as its target human mGlu2 receptors (Homo sapiens, UniProt Q14416). The conditions noted are these: agonist, in vitro; cited from earlier work.
The test system of assay [4] is Human neural stem cells (hNSCs). As to the kind of experiment: Astrocyte differentiation of human neural stem cells (GFAP staining). The note with it: agent alone; for pEC50: Homo sapiens, Neural stem cell, percent of astrocyte positive control, basal media subtracted. Type of assay: cell-based. An excerpt: Human neural stem cells (hNSCs) were isolated and grown in monolayer culture, plated, treated with varying concentrations of buspirone in the presence or absence of the melatonin agonist melatonin, and stained with an antibody for the detection of the astrocyte marker GFAP, as described in U.S. Provisional Application No. 60/697,905 (incorporated by reference). Mitogen-free test media with a positive control for astrocyte differentiation was used along with basal media without growth factors as a negative control. Human neural stem cells (hNSCs) were isolated and grown in monolayer culture, plated, treated with varying concentrations of buspirone in the presence or absence of the melatonin agonist ramelteon, and stained with an antibody for the detection of the astrocyte marker GFAP, as described in U.S. Provisional Application No. 60/697,905 (incorporated by reference). Mitogen-free test media with a positive control for astrocyte differentiation was used along with basal media without growth factors as a negative control.

In assay [5] the test system is Male F344 rats. As to the kind of experiment: Novelty suppressed feeding assay (latency to eat). The note with it: 0.5 mg/kg buspirone and/or 3.0 mg/kg melatonin, i.p., 1x per day for 21 days. Type of assay: in vivo, rat. The procedure:
Male F344 rats were dosed 1× per day for 21-days with 0 (vehicle only) 0.5 mg/kg buspirone (n=12 per dose group, i.p.) 3.0 mg/kg melatonin (n=12 per dose group, i.p.) or the combination of the two drugs at the same doses. […] Results shown in this figure indicate the mean latency to approach and eat a food pellet within the novel environment. Data are presented as latency to eat expressed as percent baseline.
Male F344 rats were dosed 1× per day for 21-days with 0 (vehicle only), 0.5 mg/kg buspirone (n=12 per dose group, i.p.), 3.0 mg/kg melatonin (n=12 per dose group, i.p.), or the combination of the two drugs at the same doses. Twenty-four hours prior to behavioral testing, all food is removed from the home cage. At the time of testing a single pellet is placed in the center of a novel arena. Animals are placed in the corner of the arena and the latency (in time) to eat the pellet is recorded. […] Animals receive compound daily for 21 days and testing is performed on day 21. A decreased latency to eat the food pellet is indicative of both neurogenesis and antidepressant activity.

In assay [6] the test system is Male F344 rats. The experiment in a line: In vivo neurogenesis (BrdU positive cells in dentate gyrus). The arrangement: species or system rat. The conditions noted are these: 0.5 mg/kg buspirone and/or 3.0 mg/kg melatonin, i.p., 1x per day for 28 days; compared to vehicle. The procedure:
Male F344 rats were dosed 1× per day for 28-days with 0 (vehicle only), 0.5 mg/kg buspirone (n=12 per dose group, i.p.), 3.0 mg/kg melatonin (n=12 per dose group, ip) or the combination of the two drugs at the same doses. BrdU was administered once daily between days 9 and 14 (100 mg/kg/day, i.p., n=12 per dose group). […] Data are presented as percent change in BrdU positive cells per cubic mm dentate gyrus.
For the in vivo neurogenesis assays, male F344 rats were dosed 1× per day for 28-days with 0 (vehicle only), 0.5 mg/kg buspirone (n=12 per dose group, i.p.), 3.0 mg/kg melatonin (n=12 per dose group, ip) or the combination of the two drugs at the same doses. BrdU was administered once daily between days 9 and 14 (100 mg/kg/day, i.p., n=12 per dose group). […] Data are presented as percent change in BrdU positive cells per cubic mm dentate gyrus.

[7] abbreviates: Homo sapiens, Neural stem cell, agent alone, concentration response curve, percent of neuronal positive control, basal media subtracted, read-out: EC50, neuronal differentiation.

Sequence of human mGlu2 receptors (Q14416 19-872): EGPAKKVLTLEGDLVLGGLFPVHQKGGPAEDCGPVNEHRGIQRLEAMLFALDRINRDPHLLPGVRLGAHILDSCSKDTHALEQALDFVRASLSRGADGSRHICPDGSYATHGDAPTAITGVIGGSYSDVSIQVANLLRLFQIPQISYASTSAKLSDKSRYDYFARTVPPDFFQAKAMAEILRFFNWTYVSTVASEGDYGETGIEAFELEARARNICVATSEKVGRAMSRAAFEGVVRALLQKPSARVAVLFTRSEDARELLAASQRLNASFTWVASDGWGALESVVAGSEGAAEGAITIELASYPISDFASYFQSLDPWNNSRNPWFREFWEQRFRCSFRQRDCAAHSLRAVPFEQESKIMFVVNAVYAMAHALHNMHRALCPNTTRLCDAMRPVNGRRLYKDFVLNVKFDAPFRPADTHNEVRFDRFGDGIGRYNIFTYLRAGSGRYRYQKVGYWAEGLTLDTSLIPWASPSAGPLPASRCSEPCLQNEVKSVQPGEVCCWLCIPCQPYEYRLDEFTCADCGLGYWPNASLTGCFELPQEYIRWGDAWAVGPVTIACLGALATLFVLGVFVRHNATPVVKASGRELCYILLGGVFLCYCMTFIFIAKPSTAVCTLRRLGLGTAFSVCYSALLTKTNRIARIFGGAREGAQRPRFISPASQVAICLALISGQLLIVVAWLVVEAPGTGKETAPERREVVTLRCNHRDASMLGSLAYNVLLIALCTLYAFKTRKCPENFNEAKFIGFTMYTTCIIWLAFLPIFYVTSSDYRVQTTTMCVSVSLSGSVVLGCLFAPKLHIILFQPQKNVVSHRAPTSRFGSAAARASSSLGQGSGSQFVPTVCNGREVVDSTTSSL
Sequence of mGluR2 (Q14416 19-872): as above
Sequence of mGluR3 (Q14832 23-879): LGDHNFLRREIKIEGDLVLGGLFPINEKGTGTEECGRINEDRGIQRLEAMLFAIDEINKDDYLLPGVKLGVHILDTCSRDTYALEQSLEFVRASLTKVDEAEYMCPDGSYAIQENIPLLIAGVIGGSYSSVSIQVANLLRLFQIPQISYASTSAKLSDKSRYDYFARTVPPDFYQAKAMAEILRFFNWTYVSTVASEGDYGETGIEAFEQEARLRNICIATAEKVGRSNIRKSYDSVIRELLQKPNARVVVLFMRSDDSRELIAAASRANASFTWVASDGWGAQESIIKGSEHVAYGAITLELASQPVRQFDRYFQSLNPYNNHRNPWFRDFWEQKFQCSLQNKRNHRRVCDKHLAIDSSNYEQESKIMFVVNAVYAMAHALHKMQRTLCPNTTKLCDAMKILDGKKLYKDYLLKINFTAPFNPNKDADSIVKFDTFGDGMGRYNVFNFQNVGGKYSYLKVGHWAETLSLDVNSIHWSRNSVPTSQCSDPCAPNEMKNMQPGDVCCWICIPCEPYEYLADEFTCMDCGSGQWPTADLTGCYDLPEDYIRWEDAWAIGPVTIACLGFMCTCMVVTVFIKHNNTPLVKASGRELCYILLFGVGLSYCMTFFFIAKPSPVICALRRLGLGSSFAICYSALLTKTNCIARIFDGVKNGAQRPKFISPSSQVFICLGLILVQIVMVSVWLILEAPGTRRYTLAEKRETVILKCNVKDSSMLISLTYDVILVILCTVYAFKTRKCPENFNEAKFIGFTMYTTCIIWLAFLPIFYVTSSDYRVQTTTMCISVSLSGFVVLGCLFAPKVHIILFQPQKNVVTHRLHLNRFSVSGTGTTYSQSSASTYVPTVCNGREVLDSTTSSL
Sequence of human mGlu3 receptors (Q14832 23-879): as above

With `NC1(C(=O)O)CCc2cc(P(=O)(O)O)ccc21` (racemic) [APICA, (RS)-1-amino-5-phosphonoindan-1-carboxylic acid], the “activity against Group I or Group III receptors” value in [1] is recorded as “no appreciable activity”. The pIC50 at mGluR3 and at mGluR2 was around 4.52 throughout.

Take `CCC(=O)NC1Cc2ccccc2C(c2ccccc2)C1` (centres unmarked) [4-P-PDOT]: the “maximum neuronal differentiation percent of positive control” value (“maximum neuronal differentiation percent” for short) in assay [2] (agent alone) came to 51%. For the same compound, the negative-log EC50 (pEC50) in assay [2] (agent alone, extrapolated beyond highest tested concentration 31.6 μM, read-out: EC50, neuronal differentiation, estimated by extrapolation) is 4.47.

For the compound `COc1ccc2cccc(CCNC(C)=O)c2c1` [Agomelatine], the pEC50 in [2] (setting [7]) was 5.06. Also, the “maximum neuronal differentiation percent” value in assay [2] (agent alone) turned out to be 42%.

Consider `COC(=O)Nc1ccc2[nH]cc(CCNC(C)=O)c2c1` [GR 135,531, 5-Methoxy-carbonylamino-N-acetyl-tryptamine], for which the pEC50 in assay [2] (Homo sapiens, Neural stem cell, read-out: EC50, neuronal differentiation) is 6.62. In addition, in assay [2] (agent alone), the “maximum neuronal differentiation percent” value turned out to be 59%.

For the compound `N[C@](CC1c2ccccc2Oc2ccccc21)(C(=O)O)[C@H]1C[C@@H]1C(=O)O` [LY341495, (2S)-2-amino-2-(1S,2S-2-carboxycycloprop-1-yl)-3-(xanth-9-yl) propanoic acid], the “activity against KA, AMPA, and NMDA iGlu receptors” value in [3] is “substantially inactive”.

Turning to `N[C@@]1(C(=O)O)CO[C@H]2[C@H](C(=O)O)[C@H]21` [LY379268, (−)-2-Oxa-4-aminobicyclohexane-4,6-dicarboxylic acid], the pEC50 on human mGlu3 receptors and at human mGlu2 receptors was above 8.00 each time.

On to `CC(=O)NCCc1c(Cc2ccccc2)[nH]c2ccccc12` [Luzindole], for which the pEC50 in assay [2] (setting [7]) was 5.01. Moreover, the “maximum neuronal differentiation percent” value in assay [2] (agent alone) was determined as 86%.

With `CCC(=O)NCC[C@@H]1CCc2ccc3c(c21)CCO3` [Ramelteon], the pEC50 in assay [2] (setting [7]) is 5.09. In addition, in assay [2] (agent alone), the “maximum neuronal differentiation percent” value turned out to be 45%. Moreover, the effect on astrogenesis result in assay [4] is given as “no astrogenesis”.

Take `O=C1CC2(CCCC2)CC(=O)N1CCCCN1CCN(c2ncccn2)CC1` [buspirone]: the pEC50 in assay [2] (setting [7]) was 5.33. In addition, the “maximum neuronal differentiation percent” value in assay [2] (agent alone) turned out to be 62%. Moreover, in [4], the pEC50 was 5.24; the “maximum astrocyte differentiation relative to positive control” value is 60% and 59%. For the same compound, in the assay with Male F344 rats [5], the “latency to eat the food pellet (percent baseline)” value is given as “did not significantly reduce”. Also, the “BrdU positive cells per cubic mm dentate gyrus (percent change)” value in the assay with Male F344 rats [6] was “did not significantly change”.

In the case of `C[C@H](CS)C(=O)N1CCC[C@H]1C(=O)O` [captopril], in assay [2] (setting [7]), the pEC50 is 5.42.

Take `COc1ccc2[nH]cc(CCNC(C)=O)c2c1` [melatonin]: the pEC50 in assay [2] (setting [7]) was below 4.50; in assay [2] (Homo sapiens, Neural stem cell, agent alone, extrapolated beyond highest tested concentration 31.6 μM, read-out: EC50, neuronal differentiation, estimated by extrapolation), around 4.30; in assay [4], below 4.50. For the same compound, the results for the effect on astrogenesis result in [4] and in [4] (listed as Melatonin) were “no astrogenesis” and “no effect”, respectively. For the same compound, the “latency to eat the food pellet (percent baseline)” value with Male F344 rats [5] is on record as “did not significantly reduce”. Further, the “BrdU positive cells per cubic mm dentate gyrus (percent change)” value in the assay on Male F344 rats [6] is “did not significantly change”.

Regarding `NCCc1c[nH]c2ccc(O)cc12` [serotonin, 5-hydroxytryptamine], in assay [2] (setting [7]), the negative-log EC50 (pEC50) is 5.13.
